In this experiment the test system is HCV 1b genotype. As to the kind of experiment: HCV Replicon assay (HCV-neo replicon cells, wild-type; luciferase reporter variants also used). The experiment is classed as cell-based. The note with it: Hepatitis C virus, HCV 1b genotype replicon. As to the method:
An HCV Replicon assay was utilized in the present disclosure, and was prepared, conducted and validated as described in commonly owned PCT/US2006/022197 and in O'Boyle et. al. Antimicrob Agents Chemother. 2005 April; 49(4):1346-53. Assay methods incorporating luciferase reporters have also been used as described (Apath.com).
HCV-neo replicon cells and replicon cells containing mutations in the NS5A region were used to test the currently described family of compounds. The compounds were determined to have more than 10-fold less inhibitory activity on cells containing mutations than wild-type cells. Thus, the compounds of the present disclosure can be effective in inhibiting the function of the HCV NS5A protein and are understood to be as effective in combinations as previously described in application PCT/US2006/022197 and commonly owned WO/04014852. Further, the compounds of the present disclosure can be effective against the HCV 1b genotype. It should also be understood that the compounds of the present disclosure can inhibit multiple genotypes of HCV. […] In one embodiment, compounds of the present disclosure are inhibitory versus 1a, 1b, 2a, 2b, 3a, 4a, and 5a genotypes.
For orientation: Replicon systems follow genome replication, usually without infectious particles.

Where two headings read alike, the source gives them in different places.

In general, EC50 refers to the concentration needed to bring the measured effect to its halfway point.

As to `COC(=O)NC(C(=O)N1CCC[C@H]1c1nc2ccc(-c3ccc(-c4ccc5c(ccc6[nH]c([C@@H]7CCCN7C(=O)C(NC(=O)OC)c7ccccc7)nc65)c4)cc3)cc2[nH]1)c1ccccc1` (stereo in doubt) [J.27c, methyl ((1R)-2-((2S)-2-(7-(4-(2-((2S)-1-((2R)-2-((methoxycarbonyl)amino)-2-phenylacetyl)-2-pyrrolidinyl)-1H-benzimidazol-5-yl)phenyl)-1H-naphtho[1,2-d]imidazol-2-yl)-1-pyrrolidinyl)-2-oxo-1-phenylethyl)carbamate], under “read-out: EC50”, the EC50 came out at 0.003 nM. As for `COC(=O)NC(C(=O)N1CCC[C@H]1c1nc2ccc(C#Cc3cccc(-c4[nH]cnc4[C@@H]4CCCN4C(=O)[C@@H](NC(=O)OC)C(C)C)c3)cc2[nH]1)C(C)C` (stereo in doubt) [J.28l, methyl ((1S)-1-(((2S)-2-(5-(3-((2-((2S)-1-((2R)-2-((methoxycarbonyl)amino)-3-methylbutanoyl)-2-pyrrolidinyl)-1H-benzimidazol-5-yl)ethynyl)phenyl)-1H-imidazol-4-yl)-1-pyrrolidinyl)carbonyl)-2-methylpropyl)carbamate], the EC50 reads like this: (class symbol, read-out: EC50 Range) 4.57 to 99 nM; (read-out: EC50) 7 nM.

Source of the values: patent US8394968B2, “Hepatitis C virus inhibitors” (Bristol-Myers Squibb Company, priority 2009, dated 2013).
